Reference: patent EP3995830A1, “METHOD OF PROGNOSIS OF AN INDIVIDUAL HAVING MULTIPLE MYELOMA TO BE SENSITIVE TO A TREATMENT” (Centre national de la recherche scientifique, priority 2020, dated 2022)

System: HMCLs
Test: HMCLs response to drug treatment (IC50 at day 4, CellTiter-Glo assay)
Assay type: cell-based, human
Conditions: classification from IC50 at day 4
Protocol: HMCLs were cultured in RPMI-1640 medium (Gibco, Thermo Fisher Scientific, Waltham, USA) supplemented with 10% fetal bovine serum (Eurobio, Les Ulis, France) and IL-6 (Peprotech, Rocky Hill, USA) for XG cell lines. The inventorsevaluated the sensitivity of HMCLs to lenalidomide and romidepsin (Selleckchem, Houston, USA). The IC50 was determined at day 4 using the CellTiter-Glo assay (Promega, Madison, USA), as previously described. The data represent the mean ± standard deviation of three independent experiments that were carried out on sextuplet culture wells (Figure 6A and 7A).

Question: For `Nc1cccc2c1CN(C1CCC(=O)NC1=O)C2=O` (centres unmarked) [lenalidomide], which “sensitivity of HMCLs to lenalidomide” value (AMO1, JJN3, KMS-12-BM, SKMM2, XG1, XG5, XG7, XG12, XG20 and XG21 HMCLs) is on record?
Answer: resistant

Question: What about the “sensitivity of HMCLs to lenalidomide” value (OPM2, RPMI8226, XG2, XG6, XG13 and XG19 HMCLs) of the same compound?
Answer: sensitive
